{
  "source": "patent US9133141B2",
  "about": "“Cysteine and cystine bioisosteres to treat schizophrenia and reduce drug cravings” (Marquette University, priority 2008, dated 2015)",
  "key": {"[1]": {"system": "rats", "experiment": "Prepulse inhibition of acoustic startle, phencyclidine-induced sensorimotor gating deficit", "type": "in vivo, rat", "settings": "for inhibition of startle response when preceded by pre-pulse (sensorimotor gating): rats pretreated 60 min, PCP 1.25 mg/kg SC, FIG. 7", "text": "Sensorimotor gating, a process compromised in schizophrenic patients, is often measured using prepulse inhibition whereby a mild auditory stimulus (prepulse, 2-15 db above background) precedes (100 ms) a startle-eliciting auditory stimulus (50 dB above background). Intact sensorimotor gating will result in suppression of the startle reflex when preceded by the prepulse. Since improvement in prepulse inhibition tracks improvement in symptoms that are largely insensitive to current treatments, this paradigm has become one of the most commonly used screening paradigms. FIG. 5 illustrates the capacity of PCP to disrupt prepulse inhibition, rendering the prepulse ineffective in suppressing the startle reflex. PCP is commonly used to disrupt prepulse inhibition because this abnormality, in addition to negative and cognitive symptoms, are insensitive to 1st generation antipsychotics thereby providing predictive validity.\nFIG. 7 is a bar graph illustrating inhibition of a startle response in response to a load stimulus (pulse) when preceded by a pre-pulse stimulus (2-15 db above background). Prepulse inhibition is a commonly used paradigm to screen antipsychotic agents for use in treating schizophrenia. The pre-pulse stimulus presented at 15 dB above background reduced the startle response in saline controls (Sal; N=54) by >60% relative to the response elicited following exposure to the pulse only. […] This reflects sensorimotor gating deficits common to patients afflicted with schizophrenia.\nIn an exemplary experiment, rats are placed on a platform in a sound attenuating chamber (10.875″×14″×19.5″, Hamilton Kinder, CA) that rests on a motion sensing plate. During all sessions, background noise is held constant at 60 dB. A matching session is conducted to determine the magnitude of the average startle response for each rat. This session consists of a five minute habituation period followed by twenty trials.\nSeventeen of these trials involve the presentation of a single auditory stimulus (pulse stimulus; 50 dB above the background noise), and in three of these trials, a pre-pulse stimulus (12 dB above background) is presented 100 ms before the pulse auditory stimulus.\nRats are then assigned to various treatment groups so that the magnitude of the startle response is equivalent across all groups. Two days later, a testing session is conducted to assess sensorimotor gating.\nThe testing session consists of a five minute habituation period, after which rats received 58 discrete trials: 26 trials during which the pulse stimulus (50 dB above background) was presented alone, eight trials each in which the pulse stimulus was preceded by a pre-pulse stimulus (5, 10, or 15 dB above background), and eight background trials with no pulse (no stimulus; background noise only).\nThe first six pulse alone trials are not included in the average startle stimulus, to achieve a relatively stable level of startle reactivity. The percent of pre-pulse inhibition is determined as 100−(average pre-pulse startle response/average startle stimulus alone)*100."}, "[2]": {"system": "human subjects", "settings": "cited from earlier work"}, "[3]": {"settings": "in vivo; cited from earlier work"}, "[4]": {"system": "cocaine abusers", "settings": "cocaine abusers receiving NAC; cited from earlier work"}, "[5]": {"settings": "clinical trials; cited from earlier work"}, "[6]": {"system": "rodents", "settings": "cited from earlier work"}, "[7]": {"settings": "N=8/group, versus PCP alone and/or N-acetylcysteine 30 mg/kg, Fisher LSD p<0.05"}},
  "data": [
    {"molecule": "CC(C)c1noc([C@@H](N)CSSC[C@H](N)c2nc(C(C)C)no2)n1", "note": "[Compound 25, (1R,1′R)-2,2′-Disulfanediylbis(1-(3-isopropyl-1,2,4-oxadiazol-5-yl)ethanamine)]", "values": [
      {"measurement": "inhibition of startle response when preceded by pre-pulse (sensorimotor gating)", "setting": "[1]; [7]", "value": "significant difference"}
    ]},
    {"molecule": "Cc1noc(C(CSSCC(NC(=O)OC(C)(C)C)c2nc(C)no2)NC(=O)OC(C)(C)C)n1", "note": "[Compound 23, tert-Butyl (1R,1′R)-2,2′-disulfanediylbis(1-(3-methyl-1,2,4-oxadiazol-5-yl)ethane-2,1-diyl)dicarbamate]", "values": [
      {"measurement": "inhibition of startle response when preceded by pre-pulse (sensorimotor gating)", "setting": "[1]; [7]", "value": "significant difference"}
    ]},
    {"molecule": "CC(=O)N[C@@H](CS)C(=O)O", "note": "[N-acetyl cysteine, N-acetylcysteine]", "values": [
      {"measurement": "safety/tolerability profile", "setting": "[2]", "value": "favorable safety/tolerability profile"},
      {"measurement": "first-pass metabolism", "setting": "[3]", "value": "extensive first-pass metabolism"},
      {"measurement": "passive transport across the blood-brain barrier", "setting": "[3]", "value": "limited passive transport"},
      {"measurement": "cocaine use and craving", "setting": "[4]", "value": "reduction in cocaine use and craving"},
      {"measurement": "antipsychotic efficacy", "setting": "[5]", "value": "clinical trials establishing the antipsychotic efficacy"},
      {"measurement": "blocking compulsive drug-seeking", "setting": "[6]", "value": "effective in blocking compulsive drug-seeking"},
      {"measurement": "phencyclidine-induced deficits in sensorimotor gating", "setting": "[1]; direct delivery into the brain (prefrontal cortex), FIG. 6", "value": "reverses phencyclidine-induced deficits in sensorimotor gating"},
      {"measurement": "inhibition of startle response when preceded by pre-pulse (sensorimotor gating)", "setting": "[1]; 30 mg/kg po", "value": "failed to exhibit sensorimotor gating"}
    ]},
    {"molecule": "c1ccc(C2(N3CCCCC3)CCCCC2)cc1", "note": "[phencyclidine]", "values": [
      {"measurement": "reduction in the startle response elicited by the pulse when preceded by the pre-pulse", "setting": "[1]; rats, phencyclidine only 1.25 mg/kg SC, N=50, regardless of pre-pulse intensity", "value": "failed to exhibit a reduction in the response elicited by the pulse"}
    ]},
    {"molecule": "tert-Butyl (1R,1′R)-2,2′-disulfanediylbis(1-(3-isopropyl-1,2,4-oxadiazol-5-yl)ethane-2,1-diyl)dicarbamate [Compound 22]", "values": [
      {"measurement": "inhibition of startle response when preceded by pre-pulse (sensorimotor gating)", "setting": "[1]; [7]", "value": "significant difference"}
    ]}
  ]
}
